Measured values: patent US20240335418A1, “SAFER PSYCHOACTIVE COMPOSITIONS” (Arcadia Medicine, Inc., priority 2021, published 2024)
Entries after “also recorded” stand apart in the source; their conditions may differ. Like-named read-outs stand apart in the source and are kept apart here.

Columns and labels:
[1] = dog, p.o.; cited from earlier work
[2] = dog, female and male, p.o.; cited from earlier work
[3] = cited from earlier work
[4] = mouse; cited from earlier work
[5] = test system: serotonergic presynaptic markers; details: primate study; cited from earlier work
[6] = p.o. in rat (SR(±)MDMA: with single housing); cited from earlier work
[7] = rat, cited from earlier work
[8] = cited from earlier work; remark: listed apart in the source
[9] = Human Equivalent Dose (HED) of NOAEL; details: for Human Equivalent Dose (HED): NOAEL (human), total dose / Human Equivalent Dose (HED): Neurotoxicology NOAEL (human), total dose: assuming a 60 kg human; for NOAEL: human, po
[10] = Subjective report: physiological and subjective effects after oral administration (Subject A); format: in vivo, human
Protocol: To determine the physiological and subjective effects of the hydrochloride salt of R-MDMA (oral administration, 250 (±) 10 mg), supplemented with acetyl-L-carnitine (ALCAR), alpha lipoic acid (ALA), ascorbate to reduce or prevent neurotoxicity.
2.2 g of racemic MDMA was obtained and dissolved in methanol at a stock concentration of 10 mg/mL. A ChiralPak Ad-H column (150×4.6 mm, 5 μm particle size) was flushed with mobile phase solution on an Agilent 1260 machine with a variable UV-Vis detector and 10 uL of the final concentrated solution (1:100) was injected on a 35 min run cycle. Due to the preliminary nature of the testing, no further characterization was done. The laevo-rich form was the first eluted. It was collected and roto-evaporated into solid form and then dried over magnesium pellets. The product, when dried and washed thoroughly, was sent out for anonymized 1H-NMR testing to determine identity.
Vitals were taken hourly, and were taken four times between hours two and three. Heart rate rose for a short period to 115-125 from 85 resting.
MDMA enantiomers were recombined in a 9:1 ratio through crystallization and washing.

[11] = cited from earlier work; for Fear behavior during the fear extinction session: during extinction training; for Conditioned fear when retention of extinction was assessed: the following day
[12] = biological target: CYP2D6 (Homo sapiens, UniProt P10635); details: cited from earlier work
[13] = biological target: CYP2C19 (Homo sapiens, UniProt P33261); details: cited from earlier work
[14] = No adverse effect level (NOAEL) in rat, p.o.; details: in vivo, po
[15] = Maximum Recommended Starting Dose (MRSD) and doses tested in humans; details: expected value
[16] = 100 mg, healthy volunteers, brain imaging studies

Chain of CYP2D6 (P10635 whole entry): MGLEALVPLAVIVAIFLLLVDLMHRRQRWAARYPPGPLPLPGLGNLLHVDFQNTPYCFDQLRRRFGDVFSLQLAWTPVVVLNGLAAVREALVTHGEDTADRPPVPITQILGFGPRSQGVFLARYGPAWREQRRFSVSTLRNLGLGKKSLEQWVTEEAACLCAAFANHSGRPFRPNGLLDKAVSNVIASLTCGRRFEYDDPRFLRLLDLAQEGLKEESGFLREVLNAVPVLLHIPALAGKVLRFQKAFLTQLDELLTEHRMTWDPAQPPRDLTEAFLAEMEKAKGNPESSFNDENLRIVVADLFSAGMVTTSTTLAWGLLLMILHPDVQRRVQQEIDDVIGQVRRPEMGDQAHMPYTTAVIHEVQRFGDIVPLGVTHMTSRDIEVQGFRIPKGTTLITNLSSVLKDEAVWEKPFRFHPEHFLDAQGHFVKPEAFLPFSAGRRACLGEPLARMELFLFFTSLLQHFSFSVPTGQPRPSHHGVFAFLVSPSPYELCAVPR
Chain of CYP2C19 (P33261 whole entry): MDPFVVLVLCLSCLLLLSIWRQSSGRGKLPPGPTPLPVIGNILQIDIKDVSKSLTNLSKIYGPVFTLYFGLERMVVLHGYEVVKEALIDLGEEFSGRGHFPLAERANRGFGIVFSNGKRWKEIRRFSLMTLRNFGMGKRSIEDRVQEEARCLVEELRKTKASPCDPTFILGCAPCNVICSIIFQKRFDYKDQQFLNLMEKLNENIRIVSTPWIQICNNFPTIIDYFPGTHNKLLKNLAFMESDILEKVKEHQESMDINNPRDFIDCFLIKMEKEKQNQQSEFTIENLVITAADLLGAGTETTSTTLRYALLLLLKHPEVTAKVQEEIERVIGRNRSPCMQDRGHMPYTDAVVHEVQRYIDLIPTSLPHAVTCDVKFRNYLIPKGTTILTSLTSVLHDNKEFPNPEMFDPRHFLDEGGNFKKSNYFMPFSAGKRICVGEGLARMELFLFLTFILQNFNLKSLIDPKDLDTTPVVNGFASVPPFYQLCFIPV

Question: Which “No adverse effect level (NOAEL)” value [1] does the source give for `CNC(C)Cc1ccc2c(c1)OCO2` (stereo not drawn) [MDMA, 3,4-methylenedioxymethamphetamine] here?
Answer: NOAEL: 15 mg/kg in

Question: What about the “Neurotoxicology NOAEL” value [2] of the same compound?
Answer: 4 mg/kg/week p.o

Question: And the “Duration of subjective effects” value [3, 16]?
Answer: approximately 4.5 hours

Question: And the “Time of peak subjective effects” value [3, 16]?
Answer: 100 min

Question: And the Duration of effects ([3]; patients with PTSD receiving one dose)?
Answer: 4 to 5 h

Question: And the “Onset of action after the initial dose” value ([3]; patients with PTSD, 100-125 mg)?
Answer: 45 to 75 min

Question: And the “Time of peak drug effects” value ([3]; patients with PTSD, 100-125 mg)?
Answer: 2 to 5 h

Question: What about the Duration of effects ([3]; patients with PTSD, with the booster dose) of the same compound?
Answer: 5 to 6 h

Question: And the “Decrease of subjective effects to baseline values” ([3]; prior study (Harris et al.))?
Answer: 5 to 6 h

Question: What about the “Onset of subjective effects” value ([3]; prior study (Harris et al.)) of the same compound?
Answer: approximately 45 mins

Question: What about the “Peak of subjective effects” value ([3]; prior study (Harris et al.)) of the same compound?
Answer: 1.5 to 2 h

Question: What about the Critical period peak [4] of the same compound?
Answer: 40 h

Question: And the “Critical period starts to open, time after the acute dose” value [4]?
Answer: about six

Question: And the Serotonergic presynaptic markers [5]?
Answer: profound reductions in all three serotonergic presynaptic markers

Question: And the “No adverse effect level (NOAEL)” value [6]?
Answer: NOAEL: 100 mg/kg

Question: And the “Neurotoxicology NOAEL” value ([7]; female, p.o.)?
Answer: 25 mg/kg/week p.o1

Question: And the “Neurotoxicology NOAEL” value ([7]; male, p.o.)?
Answer: 20 mg/kg/week p.o1.

Question: What about the Elimination half-life ([8]; doses ranging from 50-125 mg) of the same compound?
Answer: 7 to 9 h

Question: What about the “Time to peak plasma concentration” value ([8]; humans, doses 100-125 mg) of the same compound?
Answer: 2 to 3 h

Question: What about the “Human Equivalent Dose (HED): NOAEL (human)” value ([9]; 9:1 R:S MDMA: expected, p.o.) of the same compound?
Answer: 34 mg/kg →

Question: What about the “Human Equivalent Dose (HED): Neurotoxicology NOAEL (human)” value ([9]; 9:1 R:S MDMA: i.v.) of the same compound?
Answer: NOAEL (human): 6 mg/kg

Question: What about the “Human Equivalent Dose (HED): NOAEL (human), total dose” value ([9]; 9:1 R:S MDMA: expected, p.o.) of the same compound?
Answer: 2080 mg

Question: And the “Human Equivalent Dose (HED): Neurotoxicology NOAEL (human), total dose” value ([9]; 9:1 R:S MDMA: i.v.)?
Answer: 342.9 mg*

Question: What does the source list for `CN[C@H](C)Cc1ccc2c(c1)OCO2` [R-MDMA, (R)-1-(1,3-Benzodioxol-5-yl)-N-methylpropan-2-amine]?
Answer: Duration of the whole experience ([10]; R-MDMA HCl 250 (±) 10 mg oral): approximately 7 hours; Peak of the experience, time after ingestion ([10]; R-MDMA HCl 250 (±) 10 mg oral): around two; Start of come-down ([10]; R-MDMA HCl 250 (±) 10 mg oral): ~4 h; Start of noticeable effects off-baseline ([10]; R-MDMA HCl 250 (±) 10 mg oral): around 40 minutes; Blood pressure ([10]; R-MDMA HCl 250 (±) 10 mg oral, monitor of low precision, result inconclusive): increased for a short period; Hyperthermia or hypothermia ([10]; single oral dose, Subject A): No noticeable hyperthermia or hypothermia; Jaw clenching ([10]; single oral dose, Subject A): No incidence of jaw clenching; Stimulant effects compared with racemic MDMA ([10]; single oral dose, Subject A): almost entirely absent; also recorded: reduction in stimulation; Heart rate ([10]; single oral dose, Subject A, R-MDMA HCl 250 (±) 10 mg with supplements (rise from 85 resting), 9:1 R:S MDMA 230-240 mg): 115-125; Fear behavior during the fear extinction session [11]: did not reduce fear behavior; Conditioned fear when retention of extinction was assessed [11]: significantly reduced conditioned fear; No adverse effect level (NOAEL) [6]: NOAEL: >200 mg/kg; Neurotoxicology NOAEL ([7]; i.v.): 50 mg/kg i.v2; AUC in comparison to S-MDMA ([8]; in vivo): increased AUC; Half-life in comparison to S-MDMA ([8]; in vivo): longer half-life; Human Equivalent Dose (HED): NOAEL (human), total dose ([9]; 9:1 R:S MDMA: expected, p.o.): mg/kg → >4100; Human Equivalent Dose (HED): Neurotoxicology NOAEL (human), total dose ([9]; 9:1 R:S MDMA: i.v.): 450 mg*; NOAEL [9]: > 68 mg/kg

Question: With `CN[C@@H](C)Cc1ccc2c(c1)OCO2` [S-MDMA, (S)-1-(1,3-Benzodioxol-5-yl)-N-methylpropan-2-amine] as the compound, how does the “Fear behavior during the fear extinction session” value [11] read?
Answer: reduced conditioned fear behavior

Question: What about the “Conditioned fear when retention of extinction was assessed” value [11] of the same compound?
Answer: a reduction thereof was not observed

Question: What about the “Neurotoxicology NOAEL” value ([7]; i.v.) of the same compound?
Answer: 20 mg/kg i.v2,3

Question: What about the “Affinity for CYP2D6 compared with the other enantiomer” value [12] of the same compound?
Answer: higher affinity

Question: What about the “Metabolism by CYP2C19, enantiomer preference” value [13] of the same compound?
Answer: preferentially metabolizes

Question: What about the “Human Equivalent Dose (HED): NOAEL (human), total dose” value ([9]; 9:1 R:S MDMA: expected, p.o.) of the same compound?
Answer: mg/kg → <2080

Question: And the “Human Equivalent Dose (HED): Neurotoxicology NOAEL (human), total dose” value ([9]; 9:1 R:S MDMA: i.v.)?
Answer: 342.9 mg*

Question: And the NOAEL [9]?
Answer: < 34 mg/kg

Question: What about the NOAEL [14] of the same compound?
Answer: < 100 mg/kg

Question: What about the “Expected MSRD” value [15] of the same compound?
Answer: 150 mg
